Source: ChEMBL document CHEMBL5352497, “Aromatic hydrazides: A potential solution for Acinetobacter baumannii infections” (Eur J Med Chem, 2023)
In brackets after ≈: the same amount, converted by molar mass. Activity calls are given as the source filed them.

Experiments:
Enterobacter cloacae = assay: Antibacterial activity against Enterobacter cloacae ATCC 13047; assay type: functional
Acinetobacter baumannii [1] = assay: Antibacterial activity against Acinetobacter baumannii ATCC 19606; assay type: functional
Pseudomonas aeruginosa = assay: Antibacterial activity against Pseudomonas aeruginosa ATCC 27853; assay type: functional
Staphylococcus aureus = assay: Antibacterial activity against Staphylococcus aureus ATCC 25923; assay type: functional
Escherichia coli = assay: Antibacterial activity against Escherichia coli MC1061; assay type: functional
[2] = test system: Staphylococcus epidermidis; assay: Antibacterial activity against Staphylococcus epidermidis ATCC 12228; assay type: functional
Bacillus anthracis = assay: Antibacterial activity against Bacillus anthracis Sterne F32; assay type: functional
[3] = Hemolytic activity in mouse RBC at 8 ug/ml incubated for 1 hr; assay type: toxicity, cell-based, Erythrocyte; details: red blood cells (erythrocytes), at 8 µg/mL, read-out: Activity
Erythrocyte = assay: (§1) Hemolytic activity in mouse RBC at 32 ug/ml incubated for 1 hr; assay type: toxicity, cell-based; details: erythrocyte, 1 h, dose 32 µg/ml
Salmonella enterica = assay: Antibacterial activity against Salmonella enterica ATCC 14028; assay type: functional
Acinetobacter baumannii [4] = assay: Antibacterial activity against Acinetobacter baumannii BAA1605; assay type: functional
HEK293 [5] = assay: Cytotoxicity against HEK293 cells at 8 ug/ml; assay type: toxicity, cell-based; details: human, dose 8 µg/ml
Klebsiella pneumoniae = assay: Antibacterial activity against Klebsiella pneumoniae ATCC 27736; assay type: functional
Acinetobacter baumannii [6] = assay: Bactericidal activity against Acinetobacter baumannii ATCC 19606 assessed as reduction in colony forming unit at 1 to 4 times MIC measured after 24 hrs; assay type: functional, organism-based
Acinetobacter baumannii [7] = assay: Induction of resistance development in Acinetobacter baumannii ATCC 19606 assessed as fold increase in MIC measured after 15 passages; assay type: functional
HEK293 [8] = assay: Cytotoxicity against HEK293 cells at 32 ug/ml; assay type: toxicity, cell-based; details: human, at 32 µg/mL
Acinetobacter baumannii [9] = assay: Antibiofilm activity against Acinetobacter baumannii ATCC 19606 assessed as inhibition of biofilm formation at 0.5 ug/ml by crystal violet assay; assay type: functional; set-up: scale not given: the % may be the effect or the level left; details: dose 0.5 µg/ml
Acinetobacter baumannii [10] = assay: Bacteriostatic activity against Acinetobacter baumannii ATCC 19606 assessed as reduction in colony forming unit incubated for 9 hrs; assay type: functional, organism-based
Acinetobacter baumannii [11] = assay: Bacteriostatic activity against Acinetobacter baumannii ATCC 19606 assessed as reduction in colony forming unit incubated for 24 hrs; assay type: functional, organism-based
Acinetobacter baumannii [12] = assay: microbe, parasite or virus in culture; details: ATCC 19606
[13] = as §1; assay type: toxicity, cell-based, Erythrocyte; details: red blood cells (erythrocytes), at 32 µg/mL, read-out: Activity

SMILES | MIC (Enterobacter cloacae) | MIC (Acinetobacter baumannii [1]) | MIC (Pseudomonas aeruginosa) | MIC (Staphylococcus aureus) | MIC (Escherichia coli) | MIC [2] | MIC (Bacillus anthracis) | hemolysis at 1 h, 8 ug/ml [3] | Activity (Erythrocyte) | MIC (Salmonella enterica) | MIC (Acinetobacter baumannii [4]) | Activity (HEK293 [5]) | MIC (Klebsiella pneumoniae) | other results
O=C(NNc1ccc(Cl)cc1)c1cc2ccccc2[nH]1 | > 64 µg/mL | 0.5 µg/mL (≈ 1.75 µM) | > 64 µg/mL | > 64 µg/mL | > 64 µg/mL | > 64 µg/mL | > 64 µg/mL | < 10% | Non-Toxic | > 64 µg/mL | 0.25 µg/mL (≈ 0.875 µM) | Non-Toxic | > 64 µg/mL | 
CCOC(=O)CNNC(=O)c1ccc2ccccc2n1 | > 64 µg/mL | > 64 µg/mL | > 64 µg/mL | > 64 µg/mL | > 64 µg/mL | > 64 µg/mL | > 64 µg/mL | < 10% | Non-Toxic | > 64 µg/mL | > 64 µg/mL | Non-Toxic | > 64 µg/mL | 
O=C(NNc1ccc(F)cc1)c1ccc(F)cn1 | 64 µg/mL (≈ 257 µM) | 0.5 µg/mL (≈ 2.01 µM) | > 64 µg/mL | > 64 µg/mL | 64 µg/mL (≈ 257 µM) | > 64 µg/mL | > 64 µg/mL | < 10% | Non-Toxic | 64 µg/mL (≈ 257 µM) | 0.25 µg/mL (≈ 1 µM) | Non-Toxic | 64 µg/mL (≈ 257 µM) | 
O=C(NNc1ccc(Cl)cc1)c1ccc(F)cn1 | 16 µg/mL (≈ 60.2 µM) | 1 µg/mL (≈ 3.76 µM) | > 64 µg/mL | > 64 µg/mL | 16 µg/mL (≈ 60.2 µM) | > 64 µg/mL | > 64 µg/mL | < 10% | Non-Toxic | 64 µg/mL (≈ 241 µM) | ≤ 0.125 µg/mL | Non-Toxic | 64 µg/mL (≈ 241 µM) | Activity (Acinetobacter baumannii [6]): Active; fold change (FC) (Acinetobacter baumannii [7]): 2; Activity (HEK293 [8]): 17%; Activity (Acinetobacter baumannii [9]): 30%
O=C(NNc1ccc(Cl)cc1)c1ccc2ccccc2n1 | > 64 µg/mL | 0.5 µg/mL (≈ 1.68 µM) | > 64 µg/mL | > 64 µg/mL | 16 µg/mL (≈ 53.7 µM) | > 64 µg/mL | > 64 µg/mL | < 10% | Non-Toxic | > 64 µg/mL | 0.5 µg/mL (≈ 1.68 µM) | Non-Toxic | > 64 µg/mL | 
CCC(=O)NNc1ccc(Cl)cc1 | 16 µg/mL (≈ 80.5 µM) | ≤ 0.125 µg/mL | > 64 µg/mL | > 64 µg/mL | 16 µg/mL (≈ 80.5 µM) | > 64 µg/mL | > 64 µg/mL | < 10% | Non-Toxic | 64 µg/mL (≈ 322 µM) | ≤ 0.125 µg/mL | Non-Toxic | 16 µg/mL (≈ 80.5 µM) | 
C=CC(=O)NNc1ccc(Cl)cc1 | 16 µg/mL (≈ 81.4 µM) | 0.25 µg/mL (≈ 1.27 µM) | > 64 µg/mL | 64 µg/mL (≈ 325 µM) | 16 µg/mL (≈ 81.4 µM) | 64 µg/mL (≈ 325 µM) | > 64 µg/mL | < 10% | Non-Toxic | 16 µg/mL (≈ 81.4 µM) | 0.25 µg/mL (≈ 1.27 µM) | Non-Toxic | 16 µg/mL (≈ 81.4 µM) | 
O=C(NNc1ccc(Cl)cc1)c1ccccn1 | 64 µg/mL (≈ 258 µM) | 0.25 µg/mL (≈ 1.01 µM) | > 64 µg/mL | > 64 µg/mL | 16 µg/mL (≈ 64.6 µM) | > 64 µg/mL | > 64 µg/mL | < 10% | Non-Toxic | 64 µg/mL (≈ 258 µM) | 0.25 µg/mL (≈ 1.01 µM) | Non-Toxic | 64 µg/mL (≈ 258 µM) | 
O=C(NNc1cccc(Cl)c1)c1ccccn1 | 4 µg/mL (≈ 16.1 µM) | 2 µg/mL (≈ 8.07 µM) | > 64 µg/mL | > 64 µg/mL | 4 µg/mL (≈ 16.1 µM) | > 64 µg/mL | > 64 µg/mL | < 10% | Non-Toxic | 16 µg/mL (≈ 64.6 µM) | 1 µg/mL (≈ 4.04 µM) | Non-Toxic | 16 µg/mL (≈ 64.6 µM) | 
O=C(NNc1ccc(Cl)cc1)c1ccccc1 | 16 µg/mL (≈ 64.9 µM) | 0.25 µg/mL (≈ 1.01 µM) | > 64 µg/mL | 64 µg/mL (≈ 259 µM) | 16 µg/mL (≈ 64.9 µM) | 64 µg/mL (≈ 259 µM) | > 64 µg/mL | < 10% | Non-Toxic | 64 µg/mL (≈ 259 µM) | 0.5 µg/mL (≈ 2.03 µM) | Non-Toxic | 16 µg/mL (≈ 64.9 µM) | 
COc1ccc(NNC(=O)c2ccc(F)cn2)cc1 | > 64 µg/mL | 1 µg/mL (≈ 3.83 µM) | > 64 µg/mL | > 64 µg/mL | > 64 µg/mL | > 64 µg/mL | > 64 µg/mL | < 10% | Non-Toxic | > 64 µg/mL | 0.5 µg/mL (≈ 1.91 µM) | Non-Toxic | > 64 µg/mL | 
O=C(O)c1cn(C2CC2)c2cc(N3CCNCC3)c(F)cc2c1=O [CIPROFLOXACIN] |  | 1 µg/mL (≈ 3.02 µM) |  | ≤ 0.063 µg/mL | ≤ 0.063 µg/mL | ≤ 0.063 µg/mL | 1 µg/mL (≈ 3.02 µM) | < 10% | Non-Toxic | ≤ 0.063 µg/mL | 2 µg/mL (≈ 6.04 µM) |  | ≤ 0.063 µg/mL | Activity (Acinetobacter baumannii [10]): Active; Activity (Acinetobacter baumannii [11]): Active; MIC (Acinetobacter baumannii [12]): 2 µg/mL (≈ 6.04 µM)
O=C(NNC1CCCCC1)c1ccc2ccccc2n1 | > 64 µg/mL | > 64 µg/mL | > 64 µg/mL | > 64 µg/mL | 64 µg/mL (≈ 238 µM) | > 64 µg/mL | > 64 µg/mL | < 10% | Non-Toxic | > 64 µg/mL | > 64 µg/mL | Non-Toxic | > 64 µg/mL | 
COc1cccc(NNC(=O)c2ccc(F)cn2)c1 | > 64 µg/mL | 0.5 µg/mL (≈ 1.91 µM) | > 64 µg/mL | > 64 µg/mL | > 64 µg/mL | 64 µg/mL (≈ 245 µM) | > 64 µg/mL | < 10% | Non-Toxic | > 64 µg/mL | 0.5 µg/mL (≈ 1.91 µM) | Non-Toxic | > 64 µg/mL | 
O=C(NNc1cccc(F)c1)c1ccc2ccccc2n1 |  |  |  |  |  |  |  | < 10% |  |  |  | Non-Toxic |  | hemolysis at 1 h, 32 ug/ml [13]: 20%; Activity (HEK293 [8]): 40%
